Source: patent US4829076A, “Novel dihydropyridines having calcium antagonistic and antihypertensive activity” (Alkaloida Vegyeszeti Gyar, priority 1986, dated 1989)
Read-outs that look alike come from different tables or passages of the source. Values belong to the compound of their own block, whether it stands above or below them.

Key:
[1] = target: T1, potential-mediated calcium channel (Rattus norvegicus, UniProt P22002); assay: Calcium-antagonistic effect on an isolated vessel preparation (portal vein); details: depolarizing solution (90 mM KCl), CaCl2 2.5 and 5.0 mM, 37° C., pH 7.4, read-out: Inhibition of the potential-mediated calcium channel, IC50
T1 construct: Portal veins were obtained from decapitated male rats; from tissue; host or cells: rat portal vein (longitudinally incised venous segment)

[2] = tested on: conscious rats with renal hypertension; assay: Antihypertensive effect in rats with renal hypertension ("RH" rats); format: in vivo, rat (CFY male); details: for Systolic blood pressure, 0 h: 0 h (baseline)
Method: The test was performed according to the method of Grollman [Proc. Soc. Exptl. […] The test compounds were administered orally.

[3] = target: T2, 1,4-dihydropyridine receptor; assay: Receptor binding studies (displacement of 3H-nitrendipine, heart microsomal preparation); details: displacement of 50% of 3H-nitrendipine
T2 construct: to the heart microsomal preparation; from tissue; host or cells: heart microsomal preparation
T2 sequence (Q13936 whole entry): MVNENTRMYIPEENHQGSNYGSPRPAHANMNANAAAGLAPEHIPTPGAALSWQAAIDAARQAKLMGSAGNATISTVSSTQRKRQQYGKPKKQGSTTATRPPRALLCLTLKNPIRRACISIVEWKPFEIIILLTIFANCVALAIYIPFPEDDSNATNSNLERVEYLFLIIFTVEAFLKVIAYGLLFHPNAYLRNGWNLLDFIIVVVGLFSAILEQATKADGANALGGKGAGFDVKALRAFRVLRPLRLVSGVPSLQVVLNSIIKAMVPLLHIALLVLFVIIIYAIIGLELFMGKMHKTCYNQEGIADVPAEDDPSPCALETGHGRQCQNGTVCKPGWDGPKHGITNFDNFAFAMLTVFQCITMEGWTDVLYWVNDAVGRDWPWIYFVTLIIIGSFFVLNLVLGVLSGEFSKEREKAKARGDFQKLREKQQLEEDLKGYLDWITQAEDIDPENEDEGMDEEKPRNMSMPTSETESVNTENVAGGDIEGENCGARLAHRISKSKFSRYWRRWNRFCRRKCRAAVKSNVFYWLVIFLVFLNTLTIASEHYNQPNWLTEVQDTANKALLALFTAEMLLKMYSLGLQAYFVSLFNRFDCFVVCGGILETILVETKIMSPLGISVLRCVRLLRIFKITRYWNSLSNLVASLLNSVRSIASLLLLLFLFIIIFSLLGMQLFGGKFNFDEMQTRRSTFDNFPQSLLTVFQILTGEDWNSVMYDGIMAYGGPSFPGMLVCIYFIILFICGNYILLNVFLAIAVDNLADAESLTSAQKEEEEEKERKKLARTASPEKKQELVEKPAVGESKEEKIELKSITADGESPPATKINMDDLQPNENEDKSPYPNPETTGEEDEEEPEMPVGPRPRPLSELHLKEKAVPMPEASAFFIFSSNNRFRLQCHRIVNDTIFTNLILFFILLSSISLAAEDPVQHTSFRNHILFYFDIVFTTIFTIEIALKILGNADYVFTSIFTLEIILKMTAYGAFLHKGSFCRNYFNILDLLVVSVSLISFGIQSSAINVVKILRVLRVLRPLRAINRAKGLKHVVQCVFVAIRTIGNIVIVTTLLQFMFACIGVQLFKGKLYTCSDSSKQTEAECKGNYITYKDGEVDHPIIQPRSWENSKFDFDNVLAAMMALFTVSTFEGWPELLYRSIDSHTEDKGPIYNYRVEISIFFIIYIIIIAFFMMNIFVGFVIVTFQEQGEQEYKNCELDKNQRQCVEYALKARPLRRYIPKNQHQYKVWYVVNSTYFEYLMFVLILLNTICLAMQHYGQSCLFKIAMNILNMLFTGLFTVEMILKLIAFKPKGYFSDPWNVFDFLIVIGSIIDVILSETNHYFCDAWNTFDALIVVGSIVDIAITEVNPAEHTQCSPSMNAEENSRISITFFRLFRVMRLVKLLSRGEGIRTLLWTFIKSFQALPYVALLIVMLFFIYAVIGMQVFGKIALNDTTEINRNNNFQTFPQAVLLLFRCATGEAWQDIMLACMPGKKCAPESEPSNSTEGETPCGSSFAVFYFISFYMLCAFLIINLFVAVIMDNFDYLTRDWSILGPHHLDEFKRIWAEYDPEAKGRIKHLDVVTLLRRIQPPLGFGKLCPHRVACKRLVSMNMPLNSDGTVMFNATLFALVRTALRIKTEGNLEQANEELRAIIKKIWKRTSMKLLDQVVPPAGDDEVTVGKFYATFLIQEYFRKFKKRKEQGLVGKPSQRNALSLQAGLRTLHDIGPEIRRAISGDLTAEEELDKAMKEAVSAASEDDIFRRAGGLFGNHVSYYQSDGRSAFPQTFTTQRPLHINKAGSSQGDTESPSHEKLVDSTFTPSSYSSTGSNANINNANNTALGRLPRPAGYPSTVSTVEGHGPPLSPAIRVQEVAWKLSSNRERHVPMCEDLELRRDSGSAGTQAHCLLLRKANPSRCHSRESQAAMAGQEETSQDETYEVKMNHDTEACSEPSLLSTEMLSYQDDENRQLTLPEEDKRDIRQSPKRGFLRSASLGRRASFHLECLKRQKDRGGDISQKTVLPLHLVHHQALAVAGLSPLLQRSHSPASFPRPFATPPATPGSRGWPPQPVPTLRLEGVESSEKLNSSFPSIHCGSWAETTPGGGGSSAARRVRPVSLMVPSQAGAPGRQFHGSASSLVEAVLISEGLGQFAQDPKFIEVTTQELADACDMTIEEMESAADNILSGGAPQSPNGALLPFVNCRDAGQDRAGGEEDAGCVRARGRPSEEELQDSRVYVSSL
T2 sequence (P54289 25-955 partner limits assumed): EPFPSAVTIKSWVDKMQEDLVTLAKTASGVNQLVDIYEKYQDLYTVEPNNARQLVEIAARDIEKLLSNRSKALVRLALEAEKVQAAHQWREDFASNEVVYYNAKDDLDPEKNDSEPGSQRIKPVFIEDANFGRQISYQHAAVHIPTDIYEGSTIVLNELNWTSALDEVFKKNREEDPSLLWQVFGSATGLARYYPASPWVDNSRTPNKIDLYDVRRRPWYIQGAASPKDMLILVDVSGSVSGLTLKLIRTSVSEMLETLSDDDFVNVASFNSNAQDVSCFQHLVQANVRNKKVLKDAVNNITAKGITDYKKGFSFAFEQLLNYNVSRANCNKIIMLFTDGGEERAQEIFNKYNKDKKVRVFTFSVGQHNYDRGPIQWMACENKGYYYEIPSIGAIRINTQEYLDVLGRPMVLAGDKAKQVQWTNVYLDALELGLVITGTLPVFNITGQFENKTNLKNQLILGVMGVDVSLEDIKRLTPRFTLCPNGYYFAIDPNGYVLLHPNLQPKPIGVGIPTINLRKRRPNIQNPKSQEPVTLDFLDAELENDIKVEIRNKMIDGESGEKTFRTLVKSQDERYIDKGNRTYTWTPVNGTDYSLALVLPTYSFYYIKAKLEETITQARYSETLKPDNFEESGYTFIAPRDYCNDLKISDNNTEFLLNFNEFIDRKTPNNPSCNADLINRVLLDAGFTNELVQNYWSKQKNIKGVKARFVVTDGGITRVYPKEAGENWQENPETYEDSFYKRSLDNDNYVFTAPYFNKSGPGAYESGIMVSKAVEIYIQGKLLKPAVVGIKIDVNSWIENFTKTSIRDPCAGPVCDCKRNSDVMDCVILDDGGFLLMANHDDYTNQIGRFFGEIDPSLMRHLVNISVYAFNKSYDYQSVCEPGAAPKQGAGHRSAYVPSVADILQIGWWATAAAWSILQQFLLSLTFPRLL
T2 sequence (P54289 956-1103 partner limits assumed): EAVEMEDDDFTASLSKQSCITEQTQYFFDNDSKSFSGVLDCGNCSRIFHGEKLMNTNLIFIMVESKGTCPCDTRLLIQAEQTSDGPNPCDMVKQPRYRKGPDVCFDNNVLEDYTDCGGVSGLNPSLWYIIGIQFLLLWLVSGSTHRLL
T2 sequence (Q08289 whole entry partner): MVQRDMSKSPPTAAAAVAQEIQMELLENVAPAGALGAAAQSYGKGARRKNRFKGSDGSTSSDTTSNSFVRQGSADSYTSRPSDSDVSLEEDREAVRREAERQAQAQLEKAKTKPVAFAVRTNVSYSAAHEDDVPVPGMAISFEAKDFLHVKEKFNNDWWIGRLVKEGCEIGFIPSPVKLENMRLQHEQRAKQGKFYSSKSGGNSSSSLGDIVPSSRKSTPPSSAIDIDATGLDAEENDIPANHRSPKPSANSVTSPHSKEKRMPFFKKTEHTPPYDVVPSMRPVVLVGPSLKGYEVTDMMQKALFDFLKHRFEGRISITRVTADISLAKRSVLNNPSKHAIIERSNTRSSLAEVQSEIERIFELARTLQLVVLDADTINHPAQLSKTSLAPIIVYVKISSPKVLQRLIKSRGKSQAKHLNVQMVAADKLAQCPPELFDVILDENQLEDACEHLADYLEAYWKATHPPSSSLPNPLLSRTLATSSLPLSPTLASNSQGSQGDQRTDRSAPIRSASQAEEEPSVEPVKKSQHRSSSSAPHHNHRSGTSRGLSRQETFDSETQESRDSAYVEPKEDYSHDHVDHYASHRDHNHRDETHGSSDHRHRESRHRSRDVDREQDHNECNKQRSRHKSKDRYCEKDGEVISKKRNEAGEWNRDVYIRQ

[4] = tested on: spontaneously hypertensive conscious rats; assay: Antihypertensive effect in spontaneously hypertensive conscious rats ("SH" rats); format: in vivo, rat (Wistar-Okamoto); details: for change in vivo at 5 mg/kg / change in vivo at 10 mg/kg / change in vivo at 2.5 mg/kg: Rattus norvegicus, po
Method: The blood pressure of rats was measured before treatment and hourly after drug administration till the 24th posttreatment hour. The test compounds were administered orally, by gavage.

[5] = tested on: anesthetized, normotensive cats; assay: Hypotensive effect in anesthetized, normotensive cats; format: in vivo, cat; details: 1 mg/kg id.
Method: A tube was inserted in the trachea of cats anesthetized with ip.35 mg/kg of pentobarbital sodium to ensure spontaneous respiration. The femoral artery and vein were both cannulated unilaterally. The vegetative test compounds (adrenaline, isoproterenol) were administered through the venous cannule. The mean arterial blood pressure was measured by joining the arterial cannule to a Statham P23Db pressure transducer and electromanometer. The heart rate was determined by a cardiotachometer triggered by arterial pulse-wave.
Various doses of the test compounds were administered through a cannule inserted into the duodenum.

[6] = tested on: conscious rats with DOCA-induced hypertension; assay: Antihypertensive effect in rats with DOCA-induced hypertension ("DH" rats); format: in vivo, rat; details: for Systolic blood pressure, 0 h: 0 h (baseline)
Method: The test was performed according to Cunning et al. [J. Pharm. Exp. Ther. 161, 88 (1981)].

[7] = tested on: PGF2alpha induced uterus contractions (isolated rat uterus); assay: In vitro uterus relaxant activity in the isolated rat uterus (inhibition of PGF2alpha induced contraction); details: 10^-6 M test compound
Method: The test was performed according to the method of Gaddum and Hammeed [Brit. […] The inhibitory activity of 10^-6 M doses of the test compounds on the PGF2alpha induced uterus contractions was determined.

[8] = 10 mg/kg p.o., 2 h, read-out: Systolic blood pressure reduction in %, 2 h
[9] = 10 mg/kg p.o., 5 h, read-out: Systolic blood pressure reduction in %, 5 h
[10] = 10 mg/kg p.o., 24 h, read-out: Systolic blood pressure reduction in %, 24 h

IC50 [1]: 0.5 nM
IC50 [3]: 6.3 ± 0.05 nM
Compound: COC(=O)C1=C(C)NC(C)=C(C(=O)OC)C1c1ccccc1NC(=O)c1ccc([N+](=O)[O-])cc1 [Example 7]
Systolic blood pressure, 0 h ([2]; 5 mg/kg p.o.): 206.6 Hgmm
Pressure reduction in %, 2 h ([2]; 5 mg/kg p.o.): -15%
Systolic blood pressure, 2 h ([2]; 5 mg/kg p.o.): 177.7 Hgmm
Pressure reduction in %, 5 h ([2]; 5 mg/kg p.o.): -13%
Systolic blood pressure, 5 h ([2]; 5 mg/kg p.o.): 188.6 Hgmm
Pressure reduction in %, 24 h ([2]; 5 mg/kg p.o.): +3%
Systolic blood pressure, 24 h ([2]; 5 mg/kg p.o.): 213.3 Hgmm
Systolic blood pressure, 0 h ([2]; 10 mg/kg p.o.): 198.8 Hgmm
Pressure reduction in %, 2 h ([2]; 10 mg/kg p.o.): -31%
Systolic blood pressure, 2 h ([2]; 10 mg/kg p.o.): 138.8 Hgmm
Pressure reduction in %, 5 h ([2]; 10 mg/kg p.o.): -25%
Systolic blood pressure, 5 h ([2]; 10 mg/kg p.o.): 150.0 Hgmm
Pressure reduction in %, 24 h ([2]; 10 mg/kg p.o.): +6%
Systolic blood pressure, 24 h ([2]; 10 mg/kg p.o.): 212.2 Hgmm
Systolic blood pressure, 2 h ([4]; 5 mg/kg p.o., 2 h): 175.2 Hgmm
Systolic blood pressure, 5 h ([4]; 5 mg/kg p.o., 5 h): 157.6 Hgmm
Systolic blood pressure, 24 h ([4]; 5 mg/kg p.o., 24 h): 217.6 Hgmm
Systolic blood pressure, 2 h ([4]; 10 mg/kg p.o., 2 h): 164.0 Hgmm
Systolic blood pressure, 5 h ([4]; 10 mg/kg p.o., 5 h): 164.0 Hgmm
Systolic blood pressure, 24 h ([4]; 10 mg/kg p.o., 24 h): 230.0 Hgmm
change in vivo at 5 mg/kg ([4]; 5 mg/kg p.o., 2 h, read-out: Systolic blood pressure reduction in %, 2 h): -15%
change in vivo at 5 mg/kg ([4]; 5 mg/kg p.o., 5 h, read-out: Systolic blood pressure reduction in %, 5 h): -24%
change in vivo at 5 mg/kg ([4]; 5 mg/kg p.o., 24 h, read-out: Systolic blood pressure reduction in %, 24 h): 5%
change in vivo at 10 mg/kg [4, 8]: -28%
change in vivo at 10 mg/kg [4, 9]: -28%
change in vivo at 10 mg/kg [4, 10]: 1%
Mean arterial pressure, 5 min [5]: 115 Hgmm
Mean arterial pressure, 15 min [5]: 60 Hgmm
Mean arterial pressure, 30 min [5]: 50 Hgmm
Mean arterial pressure, 60 min [5]: 60 Hgmm
Mean arterial pressure, 120 min [5]: 85 Hgmm
Systolic blood pressure, 0 h ([6]; 5 mg/kg p.o.): 176.8 Hgmm
Pressure reduction in %, 2 h ([6]; 5 mg/kg p.o.): -24%
Systolic blood pressure, 2 h ([6]; 5 mg/kg p.o.): 135.7 Hgmm
Pressure reduction in %, 5 h ([6]; 5 mg/kg p.o.): -16%
Systolic blood pressure, 5 h ([6]; 5 mg/kg p.o.): 149.4 Hgmm
Pressure reduction in %, 24 h ([6]; 5 mg/kg p.o.): +2%
Systolic blood pressure, 24 h ([6]; 5 mg/kg p.o.): 180.8 Hgmm
Systolic blood pressure, 0 h ([6]; 10 mg/kg p.o.): 176.2 Hgmm
Pressure reduction in %, 2 h ([6]; 10 mg/kg p.o.): -28%
Systolic blood pressure, 2 h ([6]; 10 mg/kg p.o.): 126.7 Hgmm
Pressure reduction in %, 5 h ([6]; 10 mg/kg p.o.): -17%
Systolic blood pressure, 5 h ([6]; 10 mg/kg p.o.): 147.5 Hgmm
Pressure reduction in %, 24 h ([6]; 10 mg/kg p.o.): 0%
Systolic blood pressure, 24 h ([6]; 10 mg/kg p.o.): 177.5 Hgmm

IC50 [1]: 3 nM
IC50 [3]: 15.5 ± 3.5 nM
Compound: COC(=O)C1=C(C)NC(C)=C(C(=O)OC)C1c1ccccc1NC(=O)c1ccc(C)cc1 [Example 15]
Systolic blood pressure, 2 h ([4]; 2.5 mg/kg p.o., 2 h): 141.4 Hgmm
Systolic blood pressure, 5 h ([4]; 2.5 mg/kg p.o., 5 h): 139.2 Hgmm
Systolic blood pressure, 24 h ([4]; 2.5 mg/kg p.o., 24 h): 193.8 Hgmm
change in vivo at 2.5 mg/kg ([4]; 2.5 mg/kg p.o., 2 h, read-out: Systolic blood pressure reduction in %, 2 h): -31%
change in vivo at 2.5 mg/kg ([4]; 2.5 mg/kg p.o., 5 h, read-out: Systolic blood pressure reduction in %, 5 h): -32%
change in vivo at 2.5 mg/kg ([4]; 2.5 mg/kg p.o., 24 h, read-out: Systolic blood pressure reduction in %, 24 h): -5%
Mean arterial pressure, 5 min [5]: 90 Hgmm
Mean arterial pressure, 15 min [5]: 65 Hgmm
Mean arterial pressure, 30 min [5]: 65 Hgmm
Mean arterial pressure, 60 min [5]: 73 Hgmm
Mean arterial pressure, 120 min [5]: 90 Hgmm

IC50 [1]: 2.5 nM
IC50 [3]: 16 ± 1.6 nM
Compound: COC(=O)C1=C(C)NC(C)=C(C(=O)OC)C1c1ccccc1NC(=O)C(F)(F)F [Example 34, 2,6-Dimethyl-3,5-bis(methoxycarbonyl)-4-(2-trifluoro-acetamidophenyl)-1,4-dihydropyridine]
Inhibition of PGF2alpha induced contraction [7]: 98.0%
Systolic blood pressure, 0 h ([2]; 10 mg/kg p.o.): 198.0 Hgmm
Pressure reduction in %, 2 h ([2]; 10 mg/kg p.o.): -28%
Systolic blood pressure, 2 h ([2]; 10 mg/kg p.o.): 141.0 Hgmm
Pressure reduction in %, 5 h ([2]; 10 mg/kg p.o.): -14%
Systolic blood pressure, 5 h ([2]; 10 mg/kg p.o.): 167.0 Hgmm
Pressure reduction in %, 24 h ([2]; 10 mg/kg p.o.): 0%
Systolic blood pressure, 24 h ([2]; 10 mg/kg p.o.): 199.0 Hgmm
Systolic blood pressure, 2 h ([4]; 10 mg/kg p.o., 2 h): 170.0 Hgmm
Systolic blood pressure, 5 h ([4]; 10 mg/kg p.o., 5 h): 182.0 Hgmm
Systolic blood pressure, 24 h ([4]; 10 mg/kg p.o., 24 h): 216.0 Hgmm
change in vivo at 10 mg/kg [4, 8]: -25%
change in vivo at 10 mg/kg [4, 9]: -19%
change in vivo at 10 mg/kg [4, 10]: -4%
Mean arterial pressure, 5 min [5]: 90 Hgmm
Mean arterial pressure, 15 min [5]: 60 Hgmm
Mean arterial pressure, 30 min [5]: 75 Hgmm
Mean arterial pressure, 60 min [5]: 90 Hgmm
Mean arterial pressure, 120 min [5]: 105 Hgmm
Systolic blood pressure, 0 h ([6]; 5 mg/kg p.o.): 192.0 Hgmm
Pressure reduction in %, 2 h ([6]; 5 mg/kg p.o.): -22%
Systolic blood pressure, 2 h ([6]; 5 mg/kg p.o.): 150.0 Hgmm
Pressure reduction in %, 5 h ([6]; 5 mg/kg p.o.): -16%
Systolic blood pressure, 5 h ([6]; 5 mg/kg p.o.): 163.0 Hgmm
Pressure reduction in %, 24 h ([6]; 5 mg/kg p.o.): 0%
Systolic blood pressure, 24 h ([6]; 5 mg/kg p.o.): 193.0 Hgmm
Systolic blood pressure, 0 h ([6]; 10 mg/kg p.o.): 189.0 Hgmm
Pressure reduction in %, 2 h ([6]; 10 mg/kg p.o.): -23%
Systolic blood pressure, 2 h ([6]; 10 mg/kg p.o.): 146.0 Hgmm
Pressure reduction in %, 5 h ([6]; 10 mg/kg p.o.): -30%
Systolic blood pressure, 5 h ([6]; 10 mg/kg p.o.): 134.0 Hgmm
Pressure reduction in %, 24 h ([6]; 10 mg/kg p.o.): -2%
Systolic blood pressure, 24 h ([6]; 10 mg/kg p.o.): 186.0 Hgmm
